Drawing on ChEMBL document CHEMBL5291721, “A preclinical secondary pharmacology resource illuminates target-adverse drug reaction associations of marketed drugs” (Nat Commun, 2023), this text covers AC50 for five compounds.

In test [1] the target is T1, Glucocorticoid receptor (Homo sapiens, UniProt P04150).
T1 sequence (P04150 whole entry): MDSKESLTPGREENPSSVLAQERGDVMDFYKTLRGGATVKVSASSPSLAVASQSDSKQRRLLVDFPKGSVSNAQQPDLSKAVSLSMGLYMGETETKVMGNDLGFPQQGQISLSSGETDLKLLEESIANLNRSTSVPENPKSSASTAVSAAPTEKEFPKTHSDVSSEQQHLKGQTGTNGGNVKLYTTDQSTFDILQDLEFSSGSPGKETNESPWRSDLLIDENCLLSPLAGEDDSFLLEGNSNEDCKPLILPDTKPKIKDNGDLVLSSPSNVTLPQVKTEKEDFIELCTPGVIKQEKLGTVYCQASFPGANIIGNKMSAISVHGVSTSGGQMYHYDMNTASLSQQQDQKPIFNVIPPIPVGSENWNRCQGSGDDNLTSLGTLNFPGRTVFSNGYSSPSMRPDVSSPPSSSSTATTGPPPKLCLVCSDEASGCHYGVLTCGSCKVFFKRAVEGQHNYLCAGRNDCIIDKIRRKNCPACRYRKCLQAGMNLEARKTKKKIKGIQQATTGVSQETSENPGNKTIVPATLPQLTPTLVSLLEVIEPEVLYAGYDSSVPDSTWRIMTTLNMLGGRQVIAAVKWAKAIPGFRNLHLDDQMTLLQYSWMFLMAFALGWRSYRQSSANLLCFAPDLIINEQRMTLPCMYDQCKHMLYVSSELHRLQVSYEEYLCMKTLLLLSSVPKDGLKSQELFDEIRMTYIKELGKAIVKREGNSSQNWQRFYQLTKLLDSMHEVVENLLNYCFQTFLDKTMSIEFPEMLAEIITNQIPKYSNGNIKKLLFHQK
It counts as functional.

The target in test [2] is Type-2 angiotensin II receptor (Homo sapiens, UniProt P50052). It counts as functional.
Sequence of Type-2 angiotensin II receptor (P50052 whole entry): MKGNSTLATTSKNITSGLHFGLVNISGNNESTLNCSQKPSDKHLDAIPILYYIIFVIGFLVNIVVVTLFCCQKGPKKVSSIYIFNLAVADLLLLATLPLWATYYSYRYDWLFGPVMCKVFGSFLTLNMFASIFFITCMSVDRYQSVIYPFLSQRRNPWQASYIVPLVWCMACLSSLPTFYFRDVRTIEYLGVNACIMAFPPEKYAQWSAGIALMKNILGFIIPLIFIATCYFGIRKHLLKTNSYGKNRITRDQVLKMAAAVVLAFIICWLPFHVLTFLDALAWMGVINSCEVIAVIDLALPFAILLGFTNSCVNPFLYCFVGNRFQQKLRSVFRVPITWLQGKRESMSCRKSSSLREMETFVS
Test [3] concerns the target T2, Retinoic acid receptor beta (Homo sapiens, UniProt P10826).
T2 sequence (P10826 whole entry): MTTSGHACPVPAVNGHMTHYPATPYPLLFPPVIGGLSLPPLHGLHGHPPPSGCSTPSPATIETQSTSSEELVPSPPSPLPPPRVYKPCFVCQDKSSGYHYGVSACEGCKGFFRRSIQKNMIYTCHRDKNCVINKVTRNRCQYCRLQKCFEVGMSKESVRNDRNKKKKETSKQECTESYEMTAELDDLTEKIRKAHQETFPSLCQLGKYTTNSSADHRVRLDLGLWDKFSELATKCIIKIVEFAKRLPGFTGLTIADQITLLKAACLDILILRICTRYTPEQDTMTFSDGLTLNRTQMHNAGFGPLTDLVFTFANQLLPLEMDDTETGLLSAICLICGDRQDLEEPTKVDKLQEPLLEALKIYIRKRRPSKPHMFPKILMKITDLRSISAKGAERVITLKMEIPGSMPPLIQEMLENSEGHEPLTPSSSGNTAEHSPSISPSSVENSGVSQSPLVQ
The test is classed as functional, cell-based.

Test [4] deals with T3, Adenosine receptor A3 (Homo sapiens, UniProt P0DMS8).
T3 sequence (P0DMS8 whole entry): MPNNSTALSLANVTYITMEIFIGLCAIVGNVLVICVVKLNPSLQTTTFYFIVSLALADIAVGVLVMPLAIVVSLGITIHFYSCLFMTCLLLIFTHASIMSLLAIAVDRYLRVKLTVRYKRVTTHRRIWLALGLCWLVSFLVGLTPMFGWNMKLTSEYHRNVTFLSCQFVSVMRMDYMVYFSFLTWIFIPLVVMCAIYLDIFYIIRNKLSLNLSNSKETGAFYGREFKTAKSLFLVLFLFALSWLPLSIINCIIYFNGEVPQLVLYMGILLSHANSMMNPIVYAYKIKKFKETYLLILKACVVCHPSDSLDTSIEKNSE

Test [5] has as its target Sodium-dependent serotonin transporter (Homo sapiens, UniProt P31645).
Also: assay procedure not described here.

Sequence of Sodium-dependent serotonin transporter (P31645 whole entry): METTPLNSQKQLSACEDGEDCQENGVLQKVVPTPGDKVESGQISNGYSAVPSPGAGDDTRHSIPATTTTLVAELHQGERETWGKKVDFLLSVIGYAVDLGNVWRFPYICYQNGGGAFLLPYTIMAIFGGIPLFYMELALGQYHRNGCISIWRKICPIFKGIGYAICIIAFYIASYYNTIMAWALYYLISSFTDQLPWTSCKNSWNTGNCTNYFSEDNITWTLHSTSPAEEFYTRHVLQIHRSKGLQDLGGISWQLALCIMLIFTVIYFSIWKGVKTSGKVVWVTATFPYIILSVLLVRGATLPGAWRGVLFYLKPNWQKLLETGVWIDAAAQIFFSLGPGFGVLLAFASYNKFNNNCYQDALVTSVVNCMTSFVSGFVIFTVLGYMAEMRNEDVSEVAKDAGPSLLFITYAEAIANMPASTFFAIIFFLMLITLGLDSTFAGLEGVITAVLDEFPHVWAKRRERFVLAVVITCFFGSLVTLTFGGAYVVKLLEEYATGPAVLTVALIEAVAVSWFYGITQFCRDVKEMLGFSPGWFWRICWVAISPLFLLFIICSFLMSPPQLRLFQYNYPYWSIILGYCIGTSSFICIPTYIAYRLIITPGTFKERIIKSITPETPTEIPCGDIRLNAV

Compound `[H]/N=C(/N)c1ccc(NCc2nc3cc(C(=O)N(CCC(=O)O)c4ccccn4)ccc3n2C)cc1` [DABIGATRAN] displayed an AC50 in test [1] of over 30 µM.

As to `Cc1c(O)c(=O)ccn1C` [DEFERIPRONE], the AC50 in test [2] is over 100 µM.

In the case of `CC(C)c1c(C(=O)Nc2ccccc2)c(-c2ccccc2)c(-c2ccc(F)cc2)n1CC[C@@H](O)C[C@@H](O)CC(=O)O` [ATORVASTATIN], the half-maximal activity concentration (AC50) in test [3] is over 30 µM.

In test [4], `Nc1nc2ccc(OC(F)(F)F)cc2s1` [RILUZOLE] returned an AC50 of 29.2 µM. This lies in the double-digit micromolar range.

Take BIVALIRUDIN: in test [5], the AC50 is over 30 µM.
